These results are taken from PMC5518293, “An Iterative Module in the Azalomycin F Polyketide Synthase Contains a Switchable Enoylreductase Domain” (Angewandte Chemie (International Ed. in English), 2017).

The target of the assay is T1, AzlA (Streptomyces sp. 211726, UniProt A0A1W6GWW1).
T1 construct: recombinant multienzyme, loading module (ACPL) plus extension module 1 (KS-AT-DH-ER-KR-ACP); mutant stated expressed in E. coli BAP1, holo-ACP1
The assay is described as follows: one-pot reconstitution, LC-ESI-HRMS of acyl-ACP1 and of hydrolysed products. In kind it is biochemical. Particulars: extender unit; with Azl4, Azl5, 4-guanidinobutyric acid and added stand-alone holo-ACP1.

For the compound `CC(C)(COP(=O)(O)OP(=O)(O)OC[C@H]1O[C@@H](n2cnc3c(N)ncnc32)[C@H](O)[C@@H]1OP(=O)(O)O)[C@@H](O)C(=O)NCCC(=O)NCCSC(=O)CC(=O)O` [malonyl‐CoA], the “one-pot reconstitution, LC-ESI-HRMS of acyl-ACP1 and of hydrolysed products” value is given as “recruits malonyl‐CoA as extender unit”.
